Each structure is given as a SMILES string. Values joined by “and” are separate entries in the source; they are usually repeats but may differ in a detail not shown here. Equal values may be shown once.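 Cultured in 96-well plates, cells were exposed to test compound for 48 hours across five concentrations. Here, GI50 denotes the concentration required for 50% inhibition of growth. TGI denotes the concentration required for complete inhibition of growth.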

From PubChem BioAssay (NCI) come the findings set out here.

Experiment in all cases: NCI tumour cell line growth inhibition, 48 h
For assay [1], the system named is CAKI-1 renal.
Assay [2] has as its system U251 CNS.
For assay [3], the system named is 786-0 renal.
Assay [4] has as its system UACC-62 melanoma.
Assay [5] deals with SW-620 colon.
The test system of assay [6] is LOX IMVI melanoma.
For assay [7], the system named is MALME-3M melanoma.
Assay [8] deals with OVCAR-4 ovarian.
Assay [9] has as its system K-562 leukemia.
In assay [10] the test system is OVCAR-8 ovarian.

On to `COc1ccc2c(c1)C(=O)c1c-2n(CCCN)c(=O)c2cc(OC)c(OC)cc12`, for which the GI50 was 0.0619 µM in assay [1]; 0.0491 µM in assay [2]; 0.146 µM in assay [3]; 299 nM in [4]; 0.0554 µM in [5]; 52.9 nM in [6]. In addition, the GI50 in assay [7] is 1140 nM. In addition, the TGI in [1] was found to be 0.467 µM; in assay [2], 1.63 µM; in assay [3], 0.445 µM; in assay [4], 1.93 µM; in assay [5], 1.98 µM; in [6] it was 0.554 µM. The TGI in assay [7] was 3 µM.
`CCOC(=O)c1c2cccccc2n2c(=O)cc(C)nc12`: the TGI in [8], in assay [1], in assay [9], in assay [2], in assay [3] and in assay [4] was > 100 µM in each case. Further, the TGI in assay [5], in [10] and in assay [6] was > 100 µM each time.
Consider `COc1ccc(-c2nc(-c3cnccn3)n(COCCO)n2)cc1`, for which the TGI in [8], in [9], in [2], in [3], in [4] and in [5] was > 100 µM throughout. In addition, the TGI in [10] and in assay [6] was > 100 µM throughout.
On to `N#Cc1cc(NC(=O)c2ccccc2)c(=O)n2c1[nH]c1ccccc12`, for which the TGI in assay [8], in assay [1], in [9], in assay [2], in assay [3] and in assay [4] was > 100 µM each time. Moreover, the TGI was > 100 µM in assay [5], > 100 µM in assay [10] and 83 µM in [7].
With `Nc1ccc2c(c1)Oc1c(F)c(F)cc3c(=O)c(C(=O)O)cn-2c13`, the TGI in assay [8], in assay [1], in [9], in assay [2], in assay [3] and in [4] was > 100 µM in each case. The TGI in assay [5], in assay [10] and in assay [7] was > 100 µM in each case.
Take `COc1ccc(CNc2cnc3cc(N)cc(N)c3n2)cc1`: the GI50 in [8] was 64.5 µM; in assay [1], 28.9 µM; in assay [9], 10.7 µM; in assay [2], 17.2 µM; in assay [3], 17.2 µM; in [4], 18100 nM. In addition, the results for the GI50 in assay [5], in [10] and in [6] were 23.5 µM, 19.7 µM and 17400 nM, respectively. Also, the TGI in [8] was > 100 µM; in [1], 68.6 µM; in assay [9], 29.3 µM; in assay [2], 32.5 µM; in [3], 31.6 µM; in assay [4], 32.4 µM. The TGI in [5] stood at 50.4 µM; in [10] it was 39.8 µM; in [6], 32 µM.
With `COC(=O)C1=C(O)[C@H](C(=O)OC)[C@]2(O)[C@@H](C(=O)OC)[C@H]1C[C@@H](c1ccc(OC(=O)/C=C/c3ccco3)cc1)[C@@H]2C(=O)OC`, the GI50 in [1] was 27 µM; in assay [9] it was 19.7 µM; in [2] it was 10.3 µM; in assay [3] it was 11.8 µM; in [4], 4090 nM; in [5], 36.3 µM. Moreover, the GI50 is 42.4 µM in assay [10] and 1590 nM in [6]. Besides, the TGI was 86.8 µM in [1]; > 100 µM in [9]; 23.8 µM in assay [2]; 30.6 µM in [3]; 18.9 µM in assay [4]; > 100 µM in assay [5]. The results for the TGI in assay [10] and in [6] were > 100 µM and 3.17 µM, respectively.
On to `COc1cc(/C=C\c2ccc(OC(C)=O)cc2)cc(OC)c1OC`, for which the TGI in assay [8], in assay [1], in [9], in [2], in assay [3] and in [4] was > 100 µM in each case. The TGI in assay [5], in assay [10] and in assay [7] was > 100 µM each time.
Turning to `CO[C@@H]1[C@H]2[C@@H](C)c3ccoc3C[C@@H]2[C@@]2(C)CC[C@H](OC(=O)c3ccccc3)[C@](C)(C(=O)O)[C@]2(O)[C@@H]1OC(=O)c1ccccc1`, the GI50 was 22.1 µM in assay [8]; 7.46 µM in [1]; 15.4 µM in assay [9]; 5.87 µM in assay [2]; 15.8 µM in [3]; 7120 nM in assay [4]. Also, the GI50 was 9.3 µM in [5], 14.3 µM in [10] and 6730 nM in assay [6]. Further, the TGI is > 50 µM in assay [8]; 15.6 µM in [1]; > 50 µM in assay [9]; 12 µM in assay [2]; > 50 µM in assay [3]; 13.6 µM in assay [4]. The TGI in [5] was 20 µM; in assay [10] it was > 50 µM; in assay [6], 13.6 µM.
As for `OC1CCC[C@@H]1Sc1ccccc1` (stereo partly specified), the TGI in assay [8], in [1], in assay [9], in assay [2], in assay [3] and in [4] was > 100 µM in each case. Further, the TGI in assay [5], in assay [10] and in assay [6] was > 100 µM in each case.
`O=C(c1ccccc1)c1c(CC(O)c2ccccc2)n(C(=O)c2ccccc2)c2ccccc12` (stereo unspecified): the TGI in assay [8], in [1], in [9], in assay [2], in [3] and in assay [4] was > 100 µM in each case. Also, the TGI in assay [5], in [10] and in assay [7] was > 100 µM in each case.
Take `CC(=N)N(C)O`: the TGI in assay [8], in [9], in assay [2], in assay [3], in assay [4] and in assay [10] was > 100 µM each time. Further, the figures for the TGI in assay [6] and in assay [7] were 31.3 µM and > 100 µM, respectively.
Turning to `COC(=O)C1=C(C(=O)OC)C2OC1c1cc3ccccc3cc12`, the TGI in assay [1] stood at 4.26 µM; in assay [2], 32.7 µM; in assay [3], 3.29 µM; in assay [4], 27.9 µM; in assay [5], 3.96 µM; in assay [10], 13.6 µM. Besides, the TGI in [6] amounted to 30.5 µM; in [7], 6 µM.
On to `COc1ccc2c(c1)N(CCO)C1=C(C(=O)OC1)C2c1ccccc1` (stereo unspecified), for which the GI50 is 3.69 µM in assay [8]; 1.15 µM in assay [1]; 1.23 µM in assay [9]; 1.81 µM in assay [2]; 2.7 µM in [3]; 1720 nM in [4]. Moreover, the results for the GI50 in assay [5], in assay [10] and in assay [6] were 1.64 µM, 2.03 µM and 2920 nM, respectively. The TGI in [8], in [1], in [9], in assay [2], in assay [3] and in [4] was > 50 µM in each case. In addition, the TGI in assay [5], in [10] and in assay [6] was > 50 µM each time.
As to `Cc1ccc(/C=C(\C#N)c2ccccc2)cc1`, the TGI in assay [8], in assay [1], in [9], in [2], in assay [3] and in [4] was > 100 µM throughout. Moreover, the TGI in [5], in [10] and in assay [6] was > 100 µM throughout.
For the molecule `CC(O[Si](c1ccccc1)(c1ccccc1)C(C)(C)C)[C@H](NC(=O)OC(C)(C)C)C(=O)O` (stereo partly specified), the TGI in assay [8], in assay [1], in assay [9], in [2], in assay [3] and in assay [5] was > 100 µM throughout. Besides, the TGI in [10] and in [7] was > 100 µM each time.
As for `CCCN1C(=O)/C(=C/c2ccc(O)cc2)SC1=Nc1ccc(OC)cc1`, the GI50 was 13.4 µM in [8]; 12.9 µM in assay [1]; 12.5 µM in [9]; 12.5 µM in assay [2]; 16 µM in assay [3]; 17600 nM in assay [4]. Moreover, the GI50 is 18 µM in [5], 18.2 µM in [10] and 15400 nM in assay [6]. Also, the TGI in assay [8] is 35.2 µM; in assay [1] it was 27.8 µM; in assay [9], > 100 µM; in [2], 26 µM; in [3], 34.6 µM; in assay [4], 33.7 µM. For the same molecule, the TGI in [5] stood at 48.3 µM; in assay [10], 37.1 µM; in [6] it was 30.8 µM.
In the case of `Cc1ccc(NC(=O)CC/C(CC(=O)C(C)(C)C)=N\Nc2ccc([N+](=O)[O-])cc2[N+](=O)[O-])cc1C`, the TGI in assay [9], in [2], in assay [3], in assay [4], in [5] and in assay [10] was > 100 µM in each case. Also, the TGI in assay [6] amounted to 97.2 µM.
For `COc1ccc(/C=C\c2cc(OC)c(OC)c(OC)c2)c(O)c1O`, the GI50 is 0.959 µM in assay [8]; 0.333 µM in assay [9]; 0.0933 µM in [2]; 238 nM in assay [4]; 0.0715 µM in assay [5]; 0.0517 µM in assay [10]. Moreover, the GI50 in assay [6] was 51.2 nM. For the same molecule, the TGI in assay [8] was 17 µM and 63.5 µM; in assay [9], 13.2 µM and 37.1 µM; in [2], 18.7 µM and 6.09 µM; in assay [3], 16.3 µM; in assay [4], 17 µM and 6.88 µM; in [5], 16.9 µM and 49.9 µM. Also, the TGI in assay [10] was 7.13 µM and 9.64 µM; in assay [6], 16.9 µM and 8.07 µM; in [7], 27.1 µM and 129 µM.
Turning to `O=C(O)CC1CC=C[C@H]2c3cc4c(cc3C(=O)NC12)OCO4` (stereo partly specified), the TGI in [9], in assay [2], in assay [3], in assay [4], in [5] and in assay [10] was > 75 µM throughout. Further, the TGI in assay [6] and in assay [7] was > 75 µM in each case.
As to `COC(=O)c1ccc2c(c1)c1c(C)c3ccncc3c(C)c1n2C`, the GI50 in assay [8] is 0.396 µM; in assay [9], 0.2 µM; in [2], 0.322 µM; in [3], 0.268 µM; in assay [4], 191 nM; in assay [5], 0.0658 µM. The GI50 in assay [10] is 0.121 µM; in assay [6] it was 88.7 nM; in assay [7], 201 nM. Further, the TGI in assay [8] is 30.8 µM; in assay [9], > 100 µM; in assay [2], > 100 µM; in [3] it was 18 µM; in assay [4] it was 2.63 µM; in [5] it was 58.3 µM. For the same molecule, the figures for the TGI in [10], in [6] and in [7] were > 100 µM, 10.8 µM and 11.2 µM, respectively.
With `Cn1nc(-c2ccccc2)c(C(=O)/C=C/c2ccc(F)cc2)c(N2CCOCC2)c1=O`, the TGI was 53.2 µM in assay [9]; 31.4 µM in [2]; 36.2 µM in [3]; 43 µM in assay [4]; 47.1 µM in assay [5]; > 100 µM in [10]. This molecule showed a TGI in [6] of 75.4 µM.
Turning to `CC[C@]12C=CCN3CC[C@@]4(c5ccc(OC)cc5N(C)[C@H]4[C@@](O)(C(=O)OC)[C@@H]1OC(=O)CCC(=O)N[C@H](Cc1c[nH]c4ccccc14)C(=O)OC)[C@@H]32`, the GI50 in assay [8] was 6.5 µM; in assay [1], 3.65 µM; in assay [9], 3.56 µM; in assay [2] it was 8.08 µM; in assay [3], 3.08 µM; in assay [4] it was 2420 nM. Further, the results for the GI50 in assay [5], in [10] and in [7] were 3.03 µM, 7.78 µM and 2600 nM, respectively. Moreover, the TGI in assay [8] was 28.4 µM; in [1] it was 17 µM; in assay [9], > 100 µM; in [2] it was 24.9 µM; in [3] it was > 100 µM; in assay [4], 7.19 µM. Further, the TGI in [5] came out at 10.6 µM; in assay [10] it was 35 µM; in assay [7], 8.09 µM.
